# Measured values reported in US4536592A, “2-Substituted prostaglandins” (G. D. Searle & Co., priority 1984, dated 1985).
# Experiment: Diarrheogenic activity test (rat, intragastric, all or none diarrhea assessment)
# Type: in vivo, Charles River rats
# Settings: doses 100 to 3000 microgram/kg
# Experimental: Diarrhea is an undesirable side effect commonly associated with prostaglandins.
# Groups of six adult male Charles River rats, weight range 180 to 200 grams are fasted for 24 hours prior to administering the test substance. The prostaglandin to be tested is administered intragastrically in iso-osmotic phosphate buffer at a volume of 10 ml/kg at doses ranging from 100 to 3000 microgram/kg. Control animals receive only the vehicle. The rats are placed in individual wire mesh cages and the trays lined with brown paper. Diarrhea is assessed at hourly intervals on an all or none basis for up to eight hours after administration of the prostaglandin. Diarrhea is defined as any loose or watery stool. ED50 value is assessed for each hourly diarrheogenic response.
Rat 8 hour Diarrheogenic ED50 [mg/kg],Structure (SMILES),"TD50 at 8 h (in vivo, po, read-out: Rat 8 hour Diarrheogenic ED50) [mg/kg]"
> 3.2,CCCCC(C)(O)C/C=C/[C@H]1[C@H](O)CC(=O)[C@@H]1CCCCCC(C)C(=O)OC (relative stereo) [Compound II],–
–,CCCCC(C)(O)C/C=C/[C@H]1[C@H](O)CC(=O)[C@@H]1CCCCCCC(=O)OC (relative stereo) [Compound I],0.366
